According to patent US11072588B2, “Barbituric acid derivatives comprising cationic and lipophilic groups” (UNIVERSITETET I TROMSØ—NORGES ARKTISKE UNIVERSITET, priority 2017, dated 2021):
Values after ≈ are worked out from the molar mass of the structure shown. Like-named read-outs stand apart in the source and are kept apart here.

Tests used:
[1] = tested on: Corynebacterium glutamicum ATCC 13032; test: MIC assay, antibiotic susceptible reference strain; type: cell-based; conditions: Corynebacterium glutamicum, ATCC13032, read-out: Antimicrobial activity (MIC) C. g
Outline: (§1)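 Broth microdilution followed CLSI M07-A9 with modifications: inoculum ~2.5-3×10^4 cells/mL in Mueller-Hinton broth, mixed 1:1 with test derivative, incubated 48 h at 35 °C. MIC was the lowest concentration giving no growth by OD600, tested in three parallels, with oxytetracycline as reference antibiotic.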

[2] = tested on: Escherichia coli ATCC 25922; test: MIC assay, antibiotic susceptible reference strain; type: cell-based; conditions: Escherichia coli, ATCC25922, read-out: Antimicrobial activity (MIC) E. c
Outline: as §1

[3] = tested on: Pseudomonas aeruginosa PA01, DSM 19880 (ATCC 15692); test: MIC assay, antibiotic susceptible reference strain; type: cell-based; conditions: Pseudomonas aeruginosa, read-out: Antimicrobial activity (MIC) P. a
Outline: as §1

[4] = tested on: Staphylococcus aureus ATCC 9144; test: MIC assay, antibiotic susceptible reference strain; type: cell-based; conditions: Staphylococcus aureus, ATCC9144, read-out: Antimicrobial activity (MIC) S. a
Outline: as §1

[5] = Determination of haemolytic activity; type: cell-based; conditions: human red blood cells (washed, from heparinized fresh blood); human RBCs, 1 h, 37° C.; read-out: RBC: haemolytic activity against human RBCs (EC50)
Outline: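 Heparinized fresh blood was washed in PBS, and RBCs were used at 1% v/v final with test compounds at 500–4 μM (DMSO ≤1%) for 1 h at 37 °C. Haemoglobin release was read at 545 nm and expressed relative to 1% Triton X-100 after PBS background correction. EC50 values are means of three independent experiments.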

P. aeruginosa 50692172 = test: MIC, multi-resistant clinical isolate; type: cell-based, Pseudomonas aeruginosa; conditions: for MIC: Pseudomonas aeruginosa, read-out: Antimicrobial activity (MIC)
P. aeruginosa K34-73 = test: MIC, multi-resistant clinical isolate; type: cell-based, Pseudomonas aeruginosa; conditions: for MIC: Pseudomonas aeruginosa
K. pneumoniae 50531633 = test: MIC, multi-resistant clinical isolate; type: cell-based, Klebsiella pneumoniae; conditions: K. pneumoniae 50531633, resistant to colistin; for MIC: Klebsiella pneumoniae, 24 h, read-out: Antimicrobial activity (MIC); for selectivity index (EC50/MIC): RBC EC50 / MIC
K. pneumoniae 50625602 = test: MIC, multi-resistant clinical isolate; type: cell-based, Klebsiella pneumoniae; conditions: for MIC: Klebsiella pneumoniae, read-out: Antimicrobial activity (MIC); for selectivity index (EC50/MIC): RBC EC50 / MIC
K. pneumoniae 50667959 = test: MIC, multi-resistant clinical isolate; type: cell-based, Klebsiella pneumoniae; conditions: for MIC: Klebsiella pneumoniae, read-out: Antimicrobial activity (MIC); for selectivity index (EC50/MIC): RBC EC50 / MIC
K. pneumoniae K47-25 = test: MIC, multi-resistant clinical isolate; type: cell-based, Klebsiella pneumoniae; conditions: for MIC: Klebsiella pneumoniae, K4725, 24 h, read-out: Antimicrobial activity (MIC)
A. baumanii K12-21 = test: MIC, multi-resistant clinical isolate; type: cell-based, Acinetobacter baumannii; conditions: for MIC: Acinetobacter baumannii, K1221, read-out: Antimicrobial activity (MIC); for selectivity index (EC50/MIC): RBC EC50 / MIC
A. baumanii K44-35 = test: MIC, multi-resistant clinical isolate; type: cell-based, Acinetobacter baumannii; conditions: for MIC: Acinetobacter baumannii, K4435, read-out: Antimicrobial activity (MIC); for selectivity index (EC50/MIC): RBC EC50 / MIC
A. baumanii K47-42 = test: MIC, multi-resistant clinical isolate; type: cell-based, Acinetobacter baumannii; conditions: for MIC: Acinetobacter baumannii, K4742, read-out: Antimicrobial activity (MIC); for selectivity index (EC50/MIC): RBC EC50 / MIC
A. baumanii K55-13 = test: MIC, multi-resistant clinical isolate; type: cell-based, Acinetobacter baumannii; conditions: for MIC: Acinetobacter baumannii, K5513, read-out: Antimicrobial activity (MIC); for selectivity index (EC50/MIC): RBC EC50 / MIC
A. baumanii K63-58 = test: MIC, multi-resistant clinical isolate; type: cell-based, Acinetobacter baumannii; conditions: A. baumanii K63-58, resistant to colistin; for MIC: Acinetobacter baumannii, K6358, 24 h, read-out: Antimicrobial activity (MIC); for selectivity index (EC50/MIC): RBC EC50 / MIC
[6] = tested on: antibiotic susceptible Gram-positive and Gram-negative reference strains; test: MIC assay, ranges over the reference strains; type: cell-based
Protocol: Working solutions of the test derivatives were prepared with up to 100% DMSO and stored at −20° C. If necessary, the solutions were heated to 40-80° C. before testing to facilitate complete dissolution. Double-distilled water was used in all dilutions prepared. […] A microdilution susceptibility test was used for MIC determination according to Clinical and Laboratory Standards Institute, “Methods for Dilution Antimicrobial Sisceptibility Tests for Bacteria That Graw Aerobically”, Approved Standard M07-A9, edition 2012, with modifications as described by Igumnova et al (Bioorg Med Chem, 2016, 24 (22), 5884-5894).
Briefly, the bacterial inoculum was adjusted to approximately 2.5-3×10^4 cells/mL in Mueller-Hinton broth (MHB, Difco Laboratories, USA), and incubated in a ratio of 1:1 with test derivatives in polystyrene 96-well flat-bottom microplates (NUNC, Roskilde, Denmark). Positive growth control (without test derivatives) and negative control (without bacteria) were included. The reference antibiotic was oxytetracycline hydrochloride (Sigma Aldrich, Saint Louis, Mo., USA). The microplates were incubated in an EnVision microplate reader (Perkin-Elmer, Turku, Finland) placed in an incubator set to 35° C. for 48 h. The MIC value was defined as the lowest concentration of derivative resulting in no bacterial growth as determined by OD600 measurement. All derivatives were tested in three parallels.

SMILES: CC(C)(C)c1ccc(CC2(Cc3ccc(C(C)(C)C)cc3)C(=O)N(CCCCN)C(=O)N(CCCCN)C2=O)cc1 [Compound 7(i), 1,3-bis(4-aminobutyl)-5,5-bis(4-tertbutylbenzyl) pyrimidin-2,4,6(1H,3H,5H)-trione]
- MIC [1]: 1 µg/mL (≈ 1.78 µM)
- MIC [2]: 4 µg/mL (≈ 7.11 µM)
- MIC [3]: 8 µg/mL (≈ 14.2 µM)
- MIC [4]: 4 µg/mL (≈ 7.11 µM)
- EC50 at 1 h [5]: 143 µg/mL (≈ 254 µM)
- MIC (P. aeruginosa 50692172): > 32 µg/mL
- MIC (P. aeruginosa K34-73; K3473, read-out: Antimicrobial activity (MIC)): > 32 µg/mL
- MIC (K. pneumoniae 50531633): 16 µg/mL (≈ 28.4 µM)
- selectivity index (EC50/MIC) (K. pneumoniae 50531633): (9)
- MIC (K. pneumoniae 50625602): 16 µg/mL (≈ 28.4 µM)
- selectivity index (EC50/MIC) (K. pneumoniae 50625602): (9)
- MIC (K. pneumoniae 50667959): 32 µg/mL (≈ 56.9 µM)
- selectivity index (EC50/MIC) (K. pneumoniae 50667959): (4)
- MIC (K. pneumoniae K47-25): > 32 µg/mL
- MIC (A. baumanii K12-21): 16 µg/mL (≈ 28.4 µM)
- selectivity index (EC50/MIC) (A. baumanii K12-21): (9)
- MIC (A. baumanii K44-35): 32 µg/mL (≈ 56.9 µM)
- selectivity index (EC50/MIC) (A. baumanii K44-35): (4)
- MIC (A. baumanii K47-42): 16 µg/mL (≈ 28.4 µM)
- selectivity index (EC50/MIC) (A. baumanii K47-42): (9)
- MIC (A. baumanii K55-13): 16 µg/mL (≈ 28.4 µM)
- selectivity index (EC50/MIC) (A. baumanii K55-13): (9)
- MIC (A. baumanii K63-58): 16 µg/mL (≈ 28.4 µM)
- selectivity index (EC50/MIC) (A. baumanii K63-58): (9)
- MIC ([6]; range over S. aureus, C. glutamicum, E. coli, P. aeruginosa reference strains, read-out: MIC values against all the reference strains): 1 to 8 µg/mL (≈ 1.78 to 14.2 µM)

SMILES: CC(C)(C)c1ccc(CC2(Cc3ccc(C(C)(C)C)cc3)C(=O)N(CCCCNC(=N)N)C(=O)N(CCCCNC(=N)N)C2=O)cc1 [Compound 8(i), 1,1′-(4,4′-(5,5-bis(4-tert-butylbenzyl)-2,4,6-trioxodihydropyrimidine-1,3(2H,4H)-diyl)bis(butane-4,1-diyl))diguanidine]
- MIC [1]: < 0.13 µg/mL
- MIC [2]: 2 µg/mL (≈ 3.09 µM)
- MIC [3]: 4 µg/mL (≈ 6.18 µM)
- MIC [4]: 1 µg/mL (≈ 1.55 µM)
- EC50 at 1 h [5]: 77 µg/mL (≈ 119 µM)
- MIC (P. aeruginosa 50692172): 16 µg/mL (≈ 24.7 µM)
- selectivity index (EC50/MIC) (P. aeruginosa 50692172; RBC EC50 / MIC): (5)
- MIC (P. aeruginosa K34-73; K3473, P. aeruginosa K34-73, read-out: Antimicrobial activity (MIC)): 8 µg/mL (≈ 12.4 µM)
- selectivity index (EC50/MIC) (P. aeruginosa K34-73; RBC EC50 / MIC, P. aeruginosa K34-73): (10)
- MIC (K. pneumoniae 50531633): 4 µg/mL (≈ 6.18 µM)
- selectivity index (EC50/MIC) (K. pneumoniae 50531633): (19)
- MIC (K. pneumoniae 50625602): 4 µg/mL (≈ 6.18 µM)
- selectivity index (EC50/MIC) (K. pneumoniae 50625602): (19)
- MIC (K. pneumoniae 50667959): 16 µg/mL (≈ 24.7 µM)
- selectivity index (EC50/MIC) (K. pneumoniae 50667959): (5)
- MIC (K. pneumoniae K47-25; K. pneumoniae K47-25, resistant to colistin): 4 µg/mL (≈ 6.18 µM)
- selectivity index (EC50/MIC) (K. pneumoniae K47-25; RBC EC50 / MIC, K. pneumoniae K47-25, resistant to colistin): (19)
- MIC (A. baumanii K12-21): 4 µg/mL (≈ 6.18 µM)
- selectivity index (EC50/MIC) (A. baumanii K12-21): (19)
- MIC (A. baumanii K44-35): 8 µg/mL (≈ 12.4 µM)
- selectivity index (EC50/MIC) (A. baumanii K44-35): (10)
- MIC (A. baumanii K47-42): 8 µg/mL (≈ 12.4 µM)
- selectivity index (EC50/MIC) (A. baumanii K47-42): (10)
- MIC (A. baumanii K55-13): 8 µg/mL (≈ 12.4 µM)
- selectivity index (EC50/MIC) (A. baumanii K55-13): (10)
- MIC (A. baumanii K63-58): 4 µg/mL (≈ 6.18 µM)
- selectivity index (EC50/MIC) (A. baumanii K63-58): (19)
- MIC ([6]; reference strains, range, read-out: MIC values against the Gram-negative bacteria E. coli and P. aeruginosa): 1 to 4 µg/mL (≈ 1.55 to 6.18 µM)
